Assays:
Assay in all cases: relative viability (nuclei count vs DMSO), 5 days (fraction); higher = more cells survive
ABC-1 = tested on: ABC-1
Summary of the method: (§1)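 Values are medians from duplicate plates. Each reflects relative viability, defined as the nuclei count of treated wells over that of vehicle wells. Lung cancer cell lines in 1536-well plates were pin-tool dosed one day after seeding with one drug alone or with a fixed anchor-drug dose plus five library-drug doses (not always all listed) in √10 steps, then fixed, stained and imaged at 4× after 5 days.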

BEN = tested on: BEN
Summary of the method: as §1

CAL-12T = tested on: CAL-12T
Summary of the method: as §1

COR-L 105 = tested on: COR-L 105
Summary of the method: as §1

HARA = tested on: HARA
Summary of the method: as §1

HCC-15 = tested on: HCC-15
Summary of the method: as §1

HCC-366 = tested on: HCC-366
Summary of the method: as §1

HCC-44 = tested on: HCC-44
Summary of the method: as §1

HCC-827 = tested on: HCC-827
Summary of the method: as §1

HOP-62 = tested on: HOP-62
Summary of the method: as §1

LC-2-ad = tested on: LC-2-ad
Summary of the method: as §1

LCLC-97TM1 = tested on: LCLC-97TM1
Summary of the method: as §1

LOU-NH91 = tested on: LOU-NH91
Summary of the method: as §1

LU99A = tested on: LU99A
Summary of the method: as §1

NCI-H1395 = tested on: NCI-H1395
Summary of the method: as §1

NCI-H1915 = tested on: NCI-H1915
Summary of the method: as §1

NCI-H1944 = tested on: NCI-H1944
Summary of the method: as §1

NCI-H2009 = tested on: NCI-H2009
Summary of the method: as §1

NCI-H2023 = tested on: NCI-H2023
Summary of the method: as §1

NCI-H596 = tested on: NCI-H596
Summary of the method: as §1

NCI-H650 = tested on: NCI-H650
Summary of the method: as §1

NCI-H661 = tested on: NCI-H661
Summary of the method: as §1

SMILES: Nc1cccc2c1CN(C1CCC(=O)NC1=O)C2=O (centres undefined) [Lenalidomide] + C[C@]1(O)C[C@@H](c2nc(-c3ccc4ccc(-c5ccccc5)nc4c3)c3c(N)nccn32)C1 [Linsitinib] (partner 1 µM)
- relative viability (ABC-1; first compound 0.253 µM): 0.589
- relative viability (ABC-1; first compound 0.8 µM): 0.732
- relative viability (ABC-1; first compound 2.53 µM): 0.71
- relative viability (ABC-1; first compound 8 µM): 0.85
- relative viability (BEN; first compound 0.253 µM): 1.03
- relative viability (BEN; first compound 0.8 µM): 0.861
- relative viability (BEN; first compound 2.53 µM): 1.09
- relative viability (BEN; first compound 8 µM): 0.781
- relative viability (CAL-12T; first compound 0.253 µM): 0.821
- relative viability (CAL-12T; first compound 0.8 µM): 0.83
- relative viability (CAL-12T; first compound 2.53 µM): 1.15
- relative viability (CAL-12T; first compound 8 µM): 0.787
- relative viability (COR-L 105; first compound 0.253 µM): 0.839
- relative viability (COR-L 105; first compound 0.8 µM): 0.774
- relative viability (COR-L 105; first compound 2.53 µM): 0.738
- relative viability (COR-L 105; first compound 8 µM): 1.12
- relative viability (HARA; first compound 0.253 µM): 0.992
- relative viability (HARA; first compound 0.8 µM): 0.91
- relative viability (HARA; first compound 2.53 µM): 1.18
- relative viability (HARA; first compound 8 µM): 0.906
- relative viability (HCC-15; first compound 0.253 µM): 0.91
- relative viability (HCC-15; first compound 2.53 µM): 0.975
- relative viability (HCC-15; first compound 8 µM): 0.895
- relative viability (HCC-366; first compound 0.253 µM): 0.689
- relative viability (HCC-366; first compound 0.8 µM): 0.548
- relative viability (HCC-366; first compound 2.53 µM): 0.601
- relative viability (HCC-366; first compound 8 µM): 0.424
- relative viability (HCC-44; first compound 0.253 µM): 0.648
- relative viability (HCC-44; first compound 0.8 µM): 0.537
- relative viability (HCC-44; first compound 2.53 µM): 0.738
- relative viability (HCC-44; first compound 8 µM): 0.522
- relative viability (HCC-827; first compound 0.253 µM): 0.939
- relative viability (HCC-827; first compound 0.8 µM): 0.944
- relative viability (HCC-827; first compound 2.53 µM): 0.995
- relative viability (HCC-827; first compound 8 µM): 1.07
- relative viability (HOP-62; first compound 0.253 µM): 0.89
- relative viability (HOP-62; first compound 0.8 µM): 0.969
- relative viability (HOP-62; first compound 2.53 µM): 0.837
- relative viability (HOP-62; first compound 8 µM): 0.918
- relative viability (LC-2-ad; first compound 0.253 µM): 0.837
- relative viability (LC-2-ad; first compound 0.8 µM): 0.926
- relative viability (LC-2-ad; first compound 2.53 µM): 0.862
- relative viability (LC-2-ad; first compound 8 µM): 0.833
- relative viability (LCLC-97TM1; first compound 0.8 µM): 0.218
- relative viability (LCLC-97TM1; first compound 2.53 µM): 0.157
- relative viability (LCLC-97TM1; first compound 8 µM): 0.137
- relative viability (LOU-NH91; first compound 0.253 µM): 0.912
- relative viability (LOU-NH91; first compound 0.8 µM): 0.977
- relative viability (LOU-NH91; first compound 2.53 µM): 0.922
- relative viability (LOU-NH91; first compound 8 µM): 0.847
- relative viability (LU99A; first compound 0.253 µM): 0.51
- relative viability (LU99A; first compound 0.8 µM): 0.554
- relative viability (LU99A; first compound 2.53 µM): 0.466
- relative viability (LU99A; first compound 8 µM): 0.352
- relative viability (NCI-H1395; first compound 0.253 µM): 0.968
- relative viability (NCI-H1395; first compound 2.53 µM): 1.23
- relative viability (NCI-H1395; first compound 8 µM): 1.03
- relative viability (NCI-H1915; first compound 0.253 µM): 1.08
- relative viability (NCI-H1915; first compound 0.8 µM): 1.12
- relative viability (NCI-H1915; first compound 2.53 µM): 1.06
- relative viability (NCI-H1915; first compound 8 µM): 1.11
- relative viability (NCI-H1944; first compound 0.253 µM): 1.15
- relative viability (NCI-H1944; first compound 0.8 µM): 1.27
- relative viability (NCI-H1944; first compound 2.53 µM): 1.24
- relative viability (NCI-H1944; first compound 8 µM): 0.948
- relative viability (NCI-H2009; first compound 0.253 µM): 1.19
- relative viability (NCI-H2009; first compound 0.8 µM): 1.16
- relative viability (NCI-H2009; first compound 2.53 µM): 1.24
- relative viability (NCI-H2009; first compound 8 µM): 1.25
- relative viability (NCI-H2023; first compound 0.253 µM): 0.68
- relative viability (NCI-H2023; first compound 0.8 µM): 0.831
- relative viability (NCI-H2023; first compound 2.53 µM): 0.681
- relative viability (NCI-H2023; first compound 8 µM): 0.695
- relative viability (NCI-H596; first compound 0.253 µM): 1.07
- relative viability (NCI-H596; first compound 0.8 µM): 1.03
- relative viability (NCI-H596; first compound 2.53 µM): 1.23
- relative viability (NCI-H596; first compound 8 µM): 0.969
- relative viability (NCI-H650; first compound 0.253 µM): 0.929
- relative viability (NCI-H650; first compound 2.53 µM): 1
- relative viability (NCI-H650; first compound 8 µM): 0.727
- relative viability (NCI-H661; first compound 0.253 µM): 0.451
- relative viability (NCI-H661; first compound 0.8 µM): 0.526
- relative viability (NCI-H661; first compound 2.53 µM): 0.59
- relative viability (NCI-H661; first compound 8 µM): 0.539
